Tested on: HBeAg level in HepDES19 cells (surrogate marker for cccDNA)
Experiment: Engineered HepDES19 primary screen assay (HBeAg as surrogate marker for cccDNA)
Format: cell-based, HBV
Settings: Hepatitis B virus, HepDES19, 120 h, read-out: IC50 (HBeAg level, HepDES19 primary screen assay)
Source text: The assay was employed to screen for novel cccDNA inhibitors. HepDES19 is a cccDNA-producing cell line. In this cell line, HBeAg in the cell culture supernatant as surrogate marker, as HBeAg production depends on cccDNA level and activity. HepDES19 is an engineered cell line which contains a 1.1 unit length HBV genome, and pgRNA transcription from the transgene is controlled by Tetracycline (Tet). In the absence of Tet, pgRNA transcription will be induced, but HBV e antigen (HBeAg) could not be produced from this pgRNA due to very short leader sequence before the HBeAg start codon and the start codon is disrupted. Only after cccDNA is formed, the missing leader sequence and start codon mutation would be restored from the 3′-terminal redundancy of pgRNA, and then HBeAg could be synthesized. Therefore, HBeAg could be used as a surrogate marker for cccDNA (Zhou, T. et al., Antiviral Res. (2006), 72(2), 116-124; Guo, H. et al., J. Virol. (2007), 81(22), 12472-12484).
HepDES19 cells were seeded at 2×10^6 cells per T150 flask and cultured with the culture medium (Dulbecco's Modified Eagle Medium: Nutrient Mixture F-12 [DMEM-F12, Gibco Cat. 11320-82], 10% Fetal Bovine Serum [FBS, Clontech Cat. 631101], 0.1 mM Non-Essential Amino Acids Solution [NEAA, Gibco Cat. 11140-050], 50 μg/mL Penicillin-Streptomycin [PS, Invitrogen Cat. 15140-163], 500 μg/mL Geneticin [G418, Invitrogen Cat. 10131-027]) containing 3 μg/mL Tet (Sigma, Cat. 87128) for 5 days. Cells were then seeded at 4×10^6 cells per T150 in the same culture medium as described above in the absence of Tet for 8 days. Cells were then harvested and frozen at density of 2×10^6 cells per mL. For compound testing, the frozen cells were thawed and seeded into 96-well plates at a density of 6×10^4 cells per well. At 24 hours after seeding, half log serial dilutions of compounds made with Dimethyl sulfoxide (DMSO, Sigma, Cat. D2650) were further diluted with the same culture medium as described above before they were added to the cells to reach desired final compound concentrations and 1% DMSO concentration. Plates were then incubated at 37° C. for another 5 days before measurement of HBeAg level and cell viability. Intracellular HBeAg level were measured with enzyme-linked immunosorbent assay (ELISA) kit (Shanghai Kehua Diagnostic Medical Products Co., Ltd). Cell viability was assessed using Cell Counting Kit-8 (Donjindo, Cat. CK04-20). IC50 values were derived from the dose-response curve using 4 parameter logistic curve fit method.
The compounds of the present invention were tested for their capacity to inhibit extracellular HBeAg level as described herein.

Compound	IC50 [µM]
Cc1ccc(N2CCc3c(oc4c(Cl)cccc4c3=O)C2=O)cc1 [Example 34, 9-chloro-2-(p-tolyl)-3,4-dihydro-2H-chromeno[2,3-c]pyridine-1,5-dione]	6.01
O=C(Nc1ccccc1F)N1CCc2c(oc3c(Cl)cccc3c2=O)C1 [Example 7, 9-chloro-N-(2-fluorophenyl)-5-oxo-3,4-dihydro-1H-chromeno[2,3-c]pyridine-2(5H)-carboxamide]	39.8
O=C1c2oc3c(Cl)cccc3c(=O)c2CCN1c1ccc(Cl)cc1Br [Example 44, 2-(2-bromo-4-chlorophenyl)-9-chloro-3,4-dihydro-2H-chromeno[2,3-c]pyridine-1,5-dione]	6.22
COc1ccc(N2Cc3c(oc4c(Cl)cccc4c3=O)C2=O)cc1 [Example 52, 5-chloro-2-(4-methoxyphenyl)-1H-chromeno[2,3-c]pyrrole-3,9-dione]	37.7
O=C(c1cc(Cl)ccc1N1CCc2c(oc3c(Cl)cccc3c2=O)C1=O)N1CCCC1 [Example 47, 9-chloro-2-(4-chloro-2-(pyrrolidine-1-carbonyl)phenyl)-3,4-dihydro-2H-chromeno[2,3-c]pyridine-1,5-dione]	3.29
COCOc1cc(Cl)ccc1N1CCc2c(oc3c(Cl)cccc3c2=O)C1=O [Example 46, 9-chloro-2-(4-chloro-2-(methoxymethoxy)phenyl)-3,4-dihydro-2H-chromeno[2,3-c]pyridine-1,5-dione]	9.84
O=C1c2oc3c(Cl)cccc3c(=O)c2CCN1c1ncc(Cl)cc1C(F)(F)F [Example 43, 9-chloro-2-(5-chloro-3-(trifluoromethyl)pyridin-2-yl)-3,4-dihydro-2H-chromeno[2,3-c]pyridine-1,5-dione]	30.1
COC(=O)c1cc(Cl)ccc1N1CCc2c(oc3c(Cl)cccc3c2=O)C1=O [Example 36, methyl 5-chloro-2-(9-chloro-1,5-dioxo-1,3,4,5-tetrahydro-2H-chromeno[2,3-c]pyridin-2-yl)benzoate]	21.6
O=C(O)C1CC(Oc2ccc(N3CCc4c(oc5c(Cl)cccc5c4=O)C3=O)cc2)C1 (stereo not shown) [Example 11, 3-(4-(9-chloro-1,5-dioxo-3,4-dihydro-1H-chromeno[2,3-c]pyridin-2(5H)-yl)phenoxy)cyclobutanecarboxylic Acid]	19
COC(=O)c1ccc(N2CCc3c(oc4c(Cl)cccc4c3=O)C2=O)cc1 [Example 10, methyl 4-(9-chloro-1,5-dioxo-3,4-dihydro-1H-chromeno[2,3-c]pyridin-2(5H)-yl)benzoate]	7.78
O=C1c2oc3c(Cl)cccc3c(=O)c2CCN1c1ccc(OC(F)(F)F)cc1Cl [Example 32, 9-chloro-2-(2-chloro-4-(trifluoromethoxy)phenyl)-3,4-dihydro-2H-chromeno[2,3-c]pyridine-1,5-dione]	10.8
O=c1c2c(oc3c(Cl)cccc13)CN(c1ccc(Cl)cc1)CC2 [Example 42, 9-chloro-2-(4-chlorophenyl)-1,2,3,4-tetrahydro-5H-chromeno[2,3-c]pyridin-5-one]	4.26
Cc1cc(Cl)ccc1N1CCc2c(oc3c(Cl)cccc3c2=O)C1=O [Example 38, 9-chloro-2-(4-chloro-2-methylphenyl)-3,4-dihydro-2H-chromeno[2,3-c]pyridine-1,5-dione]	2.12
O=C1c2oc3c(Cl)cccc3c(=O)c2CCN1c1cccc(OC(F)(F)F)c1 [Example 21, 9-chloro-2-(3-(trifluoromethoxy)phenyl)-3,4-dihydro-2H-chromeno[2,3-c]pyridine-1,5-dione]	47.5
O=C(c1ccccc1F)N1CCc2c(oc3c(Cl)cccc3c2=O)C1 [Example 4, 9-chloro-2-(2-fluorobenzoyl)-3,4-dihydro-1H-chromeno[2,3-c]pyridin-5-one]	23.4
COC(=O)c1cccc(N2CCc3c(oc4c(Cl)cccc4c3=O)C2=O)c1 [Example 8, methyl 3-(9-chloro-1,5-dioxo-3,4-dihydro-1H-chromeno[2,3-c]pyridin-2(5H)-yl)benzoate]	0.23

Compound	IC50 [µM]
CCOc1cc(Cl)ccc1N1CCc2c(oc3c(Cl)cccc3c2=O)C1=O [Example 48, 9-chloro-2-(4-chloro-2-ethoxyphenyl)-3,4-dihydro-2H-chromeno[2,3-c]pyridine-1,5-dione]	6.9
O=c1c2c(oc3c(Cl)cccc13)CN(c1ccc(Cl)c(Cl)c1)CC2 [Example 49, 9-chloro-2-(3,4-dichlorophenyl)-1,2,3,4-tetrahydro-5H-chromeno[2,3-c]pyridin-5-one]	40.1
O=C1c2oc3c(Cl)cccc3c(=O)c2CCN1c1ccc(Br)cc1 [Example 15, 2-(4-bromophenyl)-9-chloro-3,4-dihydro-2H-chromeno[2,3-c]pyridine-1,5-dione]	10.5
O=C1c2oc3c(Cl)cccc3c(=O)c2CCN1c1ccc(OC(F)(F)F)cc1 [Example 33, 9-chloro-2-(4-(trifluoromethoxy)phenyl)-3,4-dihydro-2H-chromeno[2,3-c]pyridine-1,5-dione]	1.84
N#Cc1ccc(N2CCc3c(oc4c(Cl)cccc4c3=O)C2=O)cc1 [Example 30, 4-(9-chloro-1,5-dioxo-1,3,4,5-tetrahydro-2H-chromeno[2,3-c]pyridin-2-yl)benzonitrile]	32.5
COCc1cc(Cl)ccc1N1CCc2c(oc3c(Cl)cccc3c2=O)C1=O [Example 50, 9-chloro-2-(4-chloro-2-(methoxymethyl)phenyl)-3,4-dihydro-2H-chromeno[2,3-c]pyridine-1,5-dione]	26.4
Cc1ccc(C)c(N2CCc3c(oc4c(Cl)cccc4c3=O)C2=O)c1 [Example 31, 9-chloro-2-(2,5-dimethylphenyl)-3,4-dihydro-2H-chromeno[2,3-c]pyridine-1,5-dione]	7.13
COc1ccc(CN2CCc3c(oc4c(Cl)cccc4c3=O)C2=O)cc1 [Example 5, 9-chloro-2-[(4-methoxyphenyl)methyl]-3,4-dihydrochromeno[2,3-c]pyridine-1,5-dione]	26
N#Cc1cc(Cl)ccc1N1CCc2c(oc3c(Cl)cccc3c2=O)C1=O [Example 37, 5-chloro-2-(9-chloro-1,5-dioxo-1,3,4,5-tetrahydro-2H-chromeno[2,3-c]pyridin-2-yl)benzonitrile]	12.2
COC(=O)c1cc(N2CCc3c(oc4c(Cl)cccc4c3=O)C2=O)ccc1Cl [Example 24, methyl 2-chloro-5-(9-chloro-1,5-dioxo-1,3,4,5-tetrahydro-2H-chromeno[2,3-c]pyridin-2-yl)benzoate]	46.1
COC(=O)c1ccc(N2CCc3c(oc4c(Cl)cccc4c3=O)C2)nc1 [Example 13, methyl 6-(9-chloro-5-oxo-3,4-dihydro-1H-chromeno[2,3-c]pyridin-2(5H)-yl)nicotinate]	41.6
COc1ccc(COc2cc(Cl)cnc2N2CCc3c(oc4c(Cl)cccc4c3=O)C2=O)cc1 [Example 45, 9-chloro-2-(5-chloro-3-((4-methoxybenzyl)oxy)pyridin-2-yl)-3,4-dihydro-2H-chromeno[2,3-c]pyridine-1,5-dione]	6.24
COC(=O)c1cccc(CN2CCc3c(oc4c(Cl)cccc4c3=O)C2)c1 [Example 3, methyl 3-((9-chloro-5-oxo-3,4-dihydro-1H-chromeno[2,3-c]pyridin-2(5H)-yl)methyl)benzoate]	30.7
O=c1c2c(oc3c(Cl)cccc13)CN(Cc1ccccc1)CC2 [Example 2, 2-benzyl-9-chloro-3,4-dihydro-1H-chromeno[2,3-c]pyridin-5(2H)-one]	49.8
O=C(c1nccc2ccccc12)N1CCc2c(oc3c(Cl)cccc3c2=O)C1 [Example 6, 9-chloro-2-(isoquinoline-1-carbonyl)-3,4-dihydro-1H-chromeno[2,3-c]pyridin-5(2H)-one]	21.6

Source: patent US20210387996A1, “TRICYCLIC COMPOUNDS FOR THE TREATMENT AND PROPHYLAXIS OF HEPATITIS B VIRUS DISEASE” (priority 2018, published 2021)
